On the set-up of data set [1]: species or system rabbits. The settings on record: rabbit, in vivo. The method, then:
[26,26,26,27,27,27]-^2 H-cholesterol shown if FIG. 2 was prepared by Dr. Eric Stohler of Biodesign, Inc. The deuterium in the labeled cholesterol is located on stable terminal methyl groups of the side chain. When both: ^13 C-cholesterol and ^2 H-cholesterols were given intravenously or orally to rabbits there was no change in the plasma ratio of the two cholesterols over one week.

The nature of data set [2]: Preparation of Intralipid infusate: filter passage and residual tracer in syringe and lines. Type of data set: physicochemical. How it is done:
(§1) [23,24,25,26,27]-^13 C-cholesterol suitable for intra venous administration was prepared in a laminar flow hood. The labeled cholesterol was dissolved at 5 mg/ml in USP ethanol in a sterile container, water was added to 10% by volume in order to increase virucidal activity, and the solution was allowed to stand at room temperature for at least 6 hrs. The solvents were then sterilely removed and the cholesterol residue dissolved at 20 mg/ml in ethanol and passed through a 0.22 micron solvent-resistant filter. Aliquots were tested for sterility and dried aliquots for pyrogenicity using the Limulus assay, and the stock was kept frozen at -70° C. On the day of the experiment both the ^13 C-cholesterol and a small amount of 10% Intralipid were warmed to 37° C. and the ethanolic cholesterol was added dropwise to 4 volumes of Intralipid. After 5 minutes at 37° C. and 15 min. at room temperature the mixture was put through a 0.8 micron particulate filter. More than 94% of the labeled cholesterol passed through the filter. An aliquot containing approximately 15 mg. ^13 C-cholesterol was drawn into atared syringe and weighed. The syringe contents were injected over 5 minutes into a running saline infusion and the syringe was washed several times with saline.

Data set [3] in a line: Dual stable isotope cholesterol absorption study in healthy subjects (oral and intravenous tracers, plasma tracer ratio by GC/MS on day 3). The settings on record: for Fa at 72 h: human, in vivo, po, 30 mg. In kind it is in vivo, human. The method, then: There is a paucity of information concerning cholesterol absorption in humans, and one prominent reason for this deficiency is the need to administer long-lived radioactive cholesterol tracers. To eliminate this hazard, we have developed a procedure, based on that of Zilversmit (Prof. Soc. Exp. Med. Biol. 140:862-865, 1972), employing stable isotopic tracers of cholesterol. One metabolically stable cholesterol tracer is administered orally and a second metabolically stable cholesterol tracer is administered intravenously on day 0. The ratio of the two tracers is determined after equilibration on about day 3 by gas chromatography-mass spectrometry (GC/MS) with selected ion monitoring. Ion current peaks corresponding to the first and second tracers are corrected for spillover From each other and from endogenous cholesterol. Percent cholesterol absorption is calculated as the ratio of the cholesterol tracers. The use of stable cholesterol isotopes for the study of cholesterol absorption is feasible, precise, safe and allows broad application of cholesterol absorption measurements in humans including women and children, thereby Facilitating clinical genetic studies in groups about which little current data is available.
There is a waiting period after the cholesterol tracers of this invention have been administered to a human subject. The waiting period allows the ingested cholesterol tracer to reach equilibrium in the subject's blood. The waiting period can range from 12 hours to about 5 days or more. However, it is preferred that the waiting period is from about 24 hours to about 96 hours. Following the waiting period, a blood sample is withdrawn from the subject and analyzed by GC/MS techniques to determine the relative amount of the two cholesterol tracers and the natural cholesterols in the sample. The GC/MS data is corrected to provide the actual relative amounts of the cholesterol tracers in the blood sample and a cholesterol absorption percentage is calculated based upon the amount of cholesterol tracers introduced into the body in relation to the amount in the blood samples.
Five healthy subjects (three men and two women, age 22-34) underwent two cholesterol absorption studies separated by 4-6 weeks. Out patient subjects received a National Cholesterol Education Program step I diet prepared in the metabolic kitchen of the Washington University Clinical Research Center for five days. Starting two days before testing and ending three days after testing. The metabolically stable cholesterols were given on day 0 with a meal containing 240 ml of whole milk as a source of fat to assure contraction of the gallbladder.
as §1, with “saline. […]” for “saline.”

For data set [4] the following is noted: humans, background; cited from earlier work.

Where “and” joins values, the source holds several entries; their conditions need not be identical. Equal entries are not always repeated. Where two headings read alike, the source gives them in different places.

Here are results for three compounds from patent US5432058A, “Method for measuring human cholesterol absorption using metabolically stable isotopes” (priority 1992, dated 1995).

In the case of `[2H]C([2H])([2H])C(CCC[C@@H](C)[C@H]1CC[C@H]2[C@@H]3CC=C4C[C@@H](O)CC[C@]4(C)[C@H]3CC[C@]12C)C([2H])([2H])[2H]` [^2 H-cholesterol, [26,26,26,27,27,27]-^2 H-cholesterol], in data set [1], the “change in the plasma ratio of the two cholesterols” value is “no change”.
Take `C[C@H](C[13CH2][13CH2][13CH]([13CH3])[13CH3])[C@H]1CC[C@H]2[C@@H]3CC=C4C[C@@H](O)CC[C@]4(C)[C@H]3CC[C@]12C` [^13 C-cholesterol, [23,24,25,26,27]-^13 C-cholesterol]: the “labeled cholesterol passed through the filter” value in data set [2] (ethanolic cholesterol in 4 volumes of 10% Intralipid, 0.8 micron particulate filter) is recorded as “More than 94%”. Besides, in data set [2] (with use of Intralipid), the solubilization of cholesterol entry was “quantitatively solubilized”; the “tracer cholesterol found in the syringe and intravenous lines” value is recorded as “less than 0.4%”. In addition, in data set [1], the “change in the plasma ratio of the two cholesterols” value is on record as “no change”.
`CC(C)CCC[C@@H](C)[C@H]1CC[C@H]2[C@@H]3CC=C4C[C@@H](O)CC[C@]4(C)[C@H]3CC[C@]12C` [cholesterol]: the Fa at 72 h in data set [3] (mean of five healthy subjects, test 1, read-out: mean cholesterol absorption, Test 1) was 59.3 ± 8.4%; in data set [3] (mean of five healthy subjects, test 2, 4-6 weeks later, read-out: mean cholesterol absorption, Test 2), 57.6 ± 8.2%; in data set [3] (test 1, five healthy subjects, read-out: cholesterol absorption, range between subjects), 47 to 71%. Besides, the “cholesterol absorption, Test 1” value in data set [3] (individual subjects 1-5, oral ^2 H-cholesterol about 30 mg, i.v. ^13 C-cholesterol about 15 mg, plasma at three days, 4320 min) is 59.4% and 62.2% and 70.5% and 47.4% and 57.1%. Also, the “cholesterol absorption, Test 2” value in data set [3] (individual subjects 1-5, second study 4-6 weeks after Test 1, plasma at three days, 4320 min) was 62.4% and 58.0% and 67.2% and 45.4% and 55.0%. Further, the “mean cholesterol absorption, Test 1” value in data set [3] (mean of five healthy subjects, test 1, 4320 min) worked out at 59%. The “percent of cholesterol absorbed” value in data set [4] is on record as 15% to 75.
